Laboratory results from PMC12040169 (PLOS Biology, 2025).

Assay: in vitro
Conditions: human, hela cells, % viability
COc1ccc2[nH]cc(CC(=O)Nc3cc(C)nc4ccccc34)c2c1 [CBK122732] gave a viability at 28.5 h, 10 µM of 88.8%.
In the case of Cc1cc(NC(=O)c2cncnc2)c2ccccc2n1 [CBK122734], the viability at 28.5 h, 10 µM is reported as 103%.
O=C(Nc1ccc2cccc(O)c2n1)c1cc[nH]c1 [CBK122743] gave a viability at 28.5 h, 10 µM of 94.9%.
With O=C1CN(c2cccc(C(F)(F)F)c2)C(=O)N1c1ccc(Cl)cc1 [CBK122769] the viability at 28.5 h, 10 µM was 108%.
Work on O=c1[nH]n(-c2ccccc2)c(=O)n1Cc1ccccc1F [CBK122770] yielded a viability at 28.5 h, 10 µM of 95%.
With COc1cccc(Cn2c(=O)[nH]n(-c3ccccc3)c2=O)c1 [CBK122771] the viability at 28.5 h, 10 µM was 97.7%.
With C=CCn1oc(=O)n(-c2ccc(OC)cc2)c1=O [CBK122773] the viability at 28.5 h, 10 µM was 89.4%.
In the case of Cc1cc(NCc2ccc(C(C)C)cc2)c2ccccc2n1 [CBK122786], the viability at 28.5 h, 10 µM is reported as 91.7%.
Cc1ccc(S(=O)(=O)N2CCOCC2)cc1-c1cncc(-c2ccc(O)cc2)n1 [CBK123789] gave a viability at 28.5 h, 10 µM of 103%.
O=C(c1ccc(-c2cncc(-c3ccc(O)cc3)n2)cc1Cl)N1CCOCC1 [CBK123790] showed a viability at 28.5 h, 10 µM of 94%.
For Oc1ccc(-c2cncc(-c3ccc(F)cc3)n2)cc1 [CBK123794], the viability at 28.5 h, 10 µM was 93.7%.
Nc1ncc(-c2ccc(CN3CCOCC3)cc2)nc1-c1ccc(O)cc1 [CBK123798] gave a viability at 28.5 h, 10 µM of 93.9%.
Compound COC(=O)/C=C/c1cccc(-c2cnc(N)c(-c3ccc(O)cc3)n2)c1 [CBK125689] has a viability at 28.5 h, 10 µM of 83.7%.
CN1CCN(C(=O)c2ccc(Cl)cc2)CC1 [CBK126096] gave a viability at 28.5 h, 10 µM of 104%.
Compound c1ccc(CC2CCN(Cc3cccnc3)CC2)cc1 [CBK126381] has a viability at 28.5 h, 10 µM of 95.9%.
C(=C\c1ccccc1)/CN1CCC(Cc2ccccc2)CC1 [CBK126384] gave a viability at 28.5 h, 10 µM of 119%.
For O=c1cc(CN2CCC(Cc3ccccc3)CC2)[nH]c(=O)[nH]1 [CBK126388], the viability at 28.5 h, 10 µM was 104%.
COc1cc2c(cc1OC)CN(Cc1nc3ccccc3[nH]1)CC2 [CBK126390] showed a viability at 28.5 h, 10 µM of 91%.
Work on COc1cc2c(cc1OC)CN(Cc1cc(=O)[nH]c(=O)[nH]1)CC2 [CBK126393] yielded a viability at 28.5 h, 10 µM of 103%.
For O=c1cc(CN2CCc3ccccc3C2)[nH]c(=O)[nH]1 [CBK126401], the viability at 28.5 h, 10 µM was 94%.
For COc1ccc(Cl)cc1N1CCN(Cc2ccc(OC(F)(F)F)cc2)CC1 [CBK126405], the viability at 28.5 h, 10 µM was 104%.
COc1ccc(Cl)cc1N1CCN(Cc2cc(OC)c(OC)c(OC)c2)CC1 [CBK126406] gave a viability at 28.5 h, 10 µM of 43.3%.
Compound COc1ccc(Cl)cc1N1CCN(Cc2ccc(C(C)C)cc2)CC1 [CBK126407] has a viability at 28.5 h, 10 µM of 97.6%.
COc1ccc(Cl)cc1N1CCN(Cc2ccc3ccccc3c2)CC1 [CBK126414] gave a viability at 28.5 h, 10 µM of 116%.
COc1ccc(Cl)cc1N1CCN(C/C=C/c2ccccc2)CC1 [CBK126415] showed a viability at 28.5 h, 10 µM of 90.3%.
With FC(F)(F)c1cccc(CN2CCN(CCc3ccccc3)CC2)c1 [CBK126421] the viability at 28.5 h, 10 µM was 99.7%.
For Fc1cccc(F)c1CN1CCN(CCc2ccccc2)CC1 [CBK126422], the viability at 28.5 h, 10 µM was 89.9%.
Compound Cc1cc(CN2CCN(CCc3ccccc3)CC2)no1 [CBK126426] has a viability at 28.5 h, 10 µM of 85.8%.
For NC(=O)CN1CCN(CCc2ccccc2)CC1 [CBK126429], the viability at 28.5 h, 10 µM was 88.4%.
In the case of O=C1NC(=O)C(CCCCN2CCC(Cc3ccccc3)CC2)N1 (stereo not drawn) [CBK126435], the viability at 28.5 h, 10 µM is reported as 91.8%.
In the case of Cc1nc(CN2CCC(Cc3ccccc3)CC2)cs1 [CBK126438], the viability at 28.5 h, 10 µM is reported as 95.7%.
Compound COc1cc2c(cc1OC)CN(Cc1csc(C)n1)CC2 [CBK126443] has a viability at 28.5 h, 10 µM of 93.4%.
With COc1ccc(Cl)cc1N1CCN(CCN2CCCCC2)CC1 [CBK126445] the viability at 28.5 h, 10 µM was 100%.
In the case of COc1ccc(Cl)cc1N1CCN(CCCCC2NC(=O)NC2=O)CC1 (stereo not drawn) [CBK126448], the viability at 28.5 h, 10 µM is reported as 89.4%.
In the case of COc1cccc(CN2CCN(CCc3ccccc3)CC2)c1 [CBK126454], the viability at 28.5 h, 10 µM is reported as 90.5%.
For Cc1nc(CN2CCN(CCc3ccccc3)CC2)cs1 [CBK126457], the viability at 28.5 h, 10 µM was 87.6%.
In the case of COc1ccc(CN2CCCc3ccccc32)cc1 [CBK126458], the viability at 28.5 h, 10 µM is reported as 95.6%.
CCOC(=O)CN(Cc1ccccc1)Cc1cccc(OC)c1 [CBK126459] gave a viability at 28.5 h, 10 µM of 96.4%.
In the case of O=[N+]([O-])c1cccc(-c2ccc(OC3CCNCC3)cc2)c1 [CBK126465T], the viability at 28.5 h, 10 µM is reported as 98.8%.
For CCc1nnc(NS(=O)(=O)c2ccc(NCc3cc(Cl)cc(Cl)c3O)cc2)s1 [CBK126494], the viability at 28.5 h, 10 µM was 112%.
Work on COc1ccc(CCNC(=O)c2cccc(-c3ccc(OC4CCNCC4)cc3)n2)cc1OC [CBK126548T] yielded a viability at 28.5 h, 10 µM of 91.7%.
In the case of CCC1(CC)OC(NC2CCCc3ccccc32)=NC1=O (stereo not drawn) [CBK126555], the viability at 28.5 h, 10 µM is reported as 99.1%.
For CCC1(CC)OC(N[C@@H](C)c2ccc(Br)cc2)=NC1=O [CBK126665], the viability at 28.5 h, 10 µM was 102%.
Work on CCC1(CC)OC(N[C@@H](C)c2ccc(Cl)cc2)=NC1=O [CBK126666] yielded a viability at 28.5 h, 10 µM of 93.2%.
COc1cc(CN2CCC3(CC2)CN(S(C)(=O)=O)c2ccccc23)cc(OC)c1OC [CBK126669] showed a viability at 28.5 h, 10 µM of 100%.
